From patent US8048915B2, “Biologically active complex” (BioMas Ltd., priority 2001, dated 2011)
Values joined by “and” are separate entries in the source; they are usually repeats but may differ in a detail not shown here. Equal entries are not always repeated. Where two headings read alike, the source gives them in different places.

Assays:
IL-2 [1] = details: 10^7 viable cells/ml
Procedure: (§1) Spleens were removed from 15, male Balb-c mice 6 to 8 weeks of age. The spleen cells were pushed through stainless steel 60 mesh (U.S. Standard) nets resting in 5 mm Petri dishes containing PBS in order to separate the cells. The cells were then collected into centrifuge tubes and spun at 1000 rpm for 10 minutes. The supernatant was discarded and cells were treated with 5 ml of hypotonic buffer (0.15M NH4Cl; 0.01M KHCO3 dissolved in double distilled water, pH 7.2) for exactly two minutes. Thereafter, PBS was added to the cells and the test tubes were centrifuged for 10 minutes at 1000 rpm. The cells were rinsed twice and counted in a hemocytometer using trypan blue to test for viability. The cells were brought to a concentration of 10^7viable cells/ml.

[2] = tested on: colony stimulating factor (CSF)
Procedure: as §1

[3] = tested on: IL-2 receptors of human mononuclear cells; assay: Induction of IL-2 receptors of human mononuclear cells (proliferation with recombinant IL-2, 3H thymidine uptake); type: cell-based
Procedure: Human MNC were brought to a concentration of 10^6 cells/ml. RPMI+10% FCS. Aliquots of 0.2 ml. were placed in duplicate wells of microdishes and plates were incubated at 37° C. for 24 hrs. […] Plates were further incubated for 48 hrs and labeled with ^3H thymidine 24 hrs before harvesting. The proliferation was measured by ^3HT uptake as described by Gillis et al, J. Immunol. […] The results are expressed in counts per minute.

human mononuclear cells = assay: Proliferation of human mononuclear cells (Example 14); type: cell-based; details: 72 hours + 24 hours label, listed as Ex. 1
Procedure: Human mononuclear cells were obtained by layering heparinized blood over a Ficoll/Hypaque gradient. The mononuclear cells were resuspended in enriched RPMI, rinsed three times and brought to a concentrations of 5×10^5cells/ml enriched RPMI. Varying concentrations of the complexes of Ex. 1 and Ex. 7(a), ranging from 0.005 μg to 5 μg/cell mixture were added to the cells. Aliquots of 0.2 ml of each sample were placed in wells of microplates (triplicates).

IL-2 receptors = assay: IL-2 receptor sites on human mononuclear cells, fluoresceinated antibody; type: cell-based; details: 1 μg/ml; 24 hours incubation
Procedure: This example provides an assay to detect the presence of receptor sites for IL-2. […] The cells were washed twice with PBS and then incubated with a specific fluoresceinated antibody against IL-2 receptors as described in Uchiyama et al, J. Immunol.

West Nile virus (WNV) [4] = tested on: West Nile virus (WNV)
Source text: WNV is a toga virus of the flavivirus group, a positive single stranded RNA virus, which when injected IP to mice usually kills them within 5-8 days as a result of extensive damage to the central nervous system.

[5] = tested on: Ha-Ras transformed NIH-3T3 cells; assay: Colony growth of Ha-Ras transformed NIH-3T3 cells; type: cell-based
Procedure: (§2) 5×10^2 cells were plated per 60 mm dish and incubated with different concentrations (0.005-5 μg/ml) of the complex in PBS. A week later, the cells were stained with Gimsa and clones were counted. Similar experiments were conducted using V-mos transformed NIH-3T3 cells, and also using Ph2TeCl2 and Ph3TeCl, with both types of transformed cells.

[6] = tested on: V-mos transformed NIH-3T3 cells; assay: Colony growth of V-mos transformed NIH-3T3 cells; type: cell-based; details: one week; clones counted
Procedure: as §2

mice = details: 6 week old mice; preliminary
IL-2 [7] = tested on: IL-2
West Nile virus (WNV) [8] = tested on: West Nile virus (WNV); remark: listed apart in the source
Procedure: (§3) All cultures were then infected with 10^4 PFU/plate. After 72 h incubation the supernatants were collected and the virus was titrated against Vera cells.

mouse macrophages = assay: Survival of mouse macrophage monolayer incubated with complex
Procedure: as §3

[9] = 5 pg (as starting material of Preparation 1)
[10] = 50 pg (as starting material of Preparation 1)
[11] = 500 pg (as starting material of Preparation 1)
[12] = 5 ng (as starting material of Preparation 1)
[13] = 50 ng (as starting material of Preparation 1)
[14] = 500 ng (as starting material of Preparation 1)
[15] = 5 μg (as starting material of Preparation 1)
[16] = 50 μg (as starting material of Preparation 1)

Compound: Cl[Te]1(Cl)(Cl)OCCO1.N [Example 1, equimolar complex of TeO2 and ethylene glycol, NH4Cl salt]
- IL-2 (IL-2 [1]; [9]): 12,000 cpm
- IL-2 (IL-2 [1]; [10]): 38,000 cpm
- IL-2 (IL-2 [1]; [11]): 30,000 cpm
- IL-2 (IL-2 [1]; [12]): 15,000 cpm
- IL-2 (IL-2 [1]; [13]): 6,000 cpm
- IL-2 (IL-2 [1]; [14]): 5,000 cpm
- IL-2 (IL-2 [1]; [15]): 5,000 cpm
- IL-2 (IL-2 [1]; [16]): 5,000 cpm
- CSF [2, 9]: 140 colonies/dish
- CSF [2, 10]: 260 colonies/dish
- CSF [2, 11]: 175 colonies/dish
- CSF [2, 12]: 120 colonies/dish
- CSF [2, 13]: 75 colonies/dish
- CSF [2, 14]: 25 colonies/dish
- CSF [2, 15]: 5 colonies/dish
- CSF [2, 16]: 2 colonies/dish
- proliferation, 3HT uptake ([3]; Test A, 1 μg/ml, listed as Ex. 1): 28625 counts per minute and 27593 counts per minute
- proliferation, 3HT uptake ([3]; Test A, 1 × 10^−3 μg/ml, listed as Ex. 1): 3652 counts per minute and 5055 counts per minute
- proliferation, 3HT uptake ([3]; Test A, 1 × 10^−4 μg/ml, listed as Ex. 1): 3558 counts per minute and 4047 counts per minute
- proliferation, 3HT uptake ([3]; Test A, 1 × 10^−5 μg/ml, listed as Ex. 1): 2474 counts per minute and 4063 counts per minute
- proliferation, 3HT uptake ([3]; Test A, 5 × 10^−1 μg/ml, listed as Ex. 1): 120755 counts per minute and 105943 counts per minute
- proliferation, 3HT uptake ([3]; Test A, 7 × 10^−1 μg/ml, listed as Ex. 1): 164538 counts per minute and 115195 counts per minute
- proliferation, 3HT uptake ([3]; Test B, 1 μg/ml): 23488 counts per minute
- proliferation, 3HT uptake ([3]; Test B, 1 × 10^−2 μg/ml): 6057 counts per minute
- proliferation, 3HT uptake ([3]; Test B, 1 × 10^−3 μg/ml): 5865 counts per minute
- proliferation, 3HT uptake ([3]; Test B, 1 × 10^−4 μg/ml): 4960 counts per minute
- proliferation, 3HT uptake ([3]; Test B, 1 × 10^−5 μg/ml): 7155 counts per minute
- proliferation, 3HT uptake ([3]; Test B, 5 × 10^−1 μg/ml): 66910 counts per minute
- proliferation, 3HT uptake ([3]; Test B, 5 × 10^−2 μg/ml): 5390 counts per minute
- proliferation, 3HT uptake ([3]; Test B, 7 × 10^−1 μg/ml): 17620 counts per minute
- proliferation of human mononuclear cells (3H methyl-thymidine) (human mononuclear cells; 5 μg/ml): 5008 and 5182
- proliferation of human mononuclear cells (3H methyl-thymidine) (human mononuclear cells; 1 × 10^−5 μg/ml): 3218 and 2442
- cells positive for IL-2 receptors (IL-2 receptors): 20%
- susceptibility of West Nile virus infections in mice (West Nile virus (WNV) [4]; mouse, in vivo): susceptible
- # Alive/Total (West Nile virus (WNV) [4]; mouse, in vivo, ip): 3/5
- fate of the three survivors after day 8 (West Nile virus (WNV) [4]; second experiment, 10^3 IPLD50 virus + complex): Two out of the remaining three survived an additional 8 days, whereas the third remained alive without any manifestations of clinical symptoms
- number of colonies / growth compared with control ([5]; 0.005-5 μg/ml in PBS, one week, clones counted): major reduction in the number of colonies
- concentration giving the maximum effect (inhibition) ([5]; 0.005-5 μg/ml tested): 0.05 µg/mL
- inhibition of growth [6]: none of the complex, Ph2TeCl2 or Ph3TeCl inhibited the growth
- LD50 (mice): 300 μg/25 g of body weight
- % Survival (fibrosarcoma cells; 10 μg IP at intervals, 4 days after inoculation with tumor cells): 100%
- % Survival (fibrosarcoma cells; 10 μg IP at intervals, 9 days after inoculation with tumor cells): 100%
- % Survival (fibrosarcoma cells; 10 μg IP at intervals, 23 days after inoculation with tumor cells): 100%
- % Survival (fibrosarcoma cells; 10 μg IP at intervals, 30 days after inoculation with tumor cells): 100%
- % Survival (fibrosarcoma cells; 10 μg IP at intervals, 37 days after inoculation with tumor cells): 100%
- % Survival (fibrosarcoma cells; 39 days after inoculation with tumor cells, start of increased dosage regimen): 100%
- % Survival (fibrosarcoma cells; 41 days after inoculation, increased dosage regimen from day 39): 100%
- % Survival (fibrosarcoma cells; 43 days after inoculation, increased dosage regimen from day 39): 100%
- % Survival (fibrosarcoma cells; 46 days after inoculation, increased dosage regimen from day 39): 80%
- % Survival (fibrosarcoma cells; 48 days after inoculation, increased dosage regimen from day 39): 80%
- % Survival (fibrosarcoma cells; 50 days after inoculation, increased dosage regimen from day 39): 80%
- % Survival (fibrosarcoma cells; 53 days after inoculation, increased dosage regimen from day 39): 60%
- % Survival (fibrosarcoma cells; 60 days after inoculation, increased dosage regimen from day 39): 40%
- % Survival (fibrosarcoma cells; 67 days after inoculation, increased dosage regimen from day 39): 20%
- % Survival (fibrosarcoma cells; 68 days after inoculation, increased dosage regimen from day 39): 0%
- mortality (fibrosarcoma cells; group (b), until just after the increased dosage regimen (day 39)): ^1Day 39 marked the start of an increased dosage regimen to determine the toxicity of the complex of Example 1. The mortality results for group (b) were 0% until just after the increased dosage regimen.
- IL-2 production (IL-2 [7]; NORMAL subjects, PHA +, 5 μg 0.2 ml PBS): 30.4 CPM × 10^−3 and 38.9 CPM × 10^−3 and 36.4 CPM × 10^−3
- IL-2 production (IL-2 [7]; NORMAL subjects, PHA +, 1:50 PBS dilution of 5 μg/0.2 ml): 38.9 CPM × 10^−3 and 53.5 CPM × 10^−3 and 48.2 CPM × 10^−3
- IL-2 production (IL-2 [7]; NORMAL subjects, PHA +, 1:100 PBS dilution of 5 μg/0.2 ml): 54.2 CPM × 10^−3 and 44.8 CPM × 10^−3 and 38.6 CPM × 10^−3
- IL-2 production (IL-2 [7]; NORMAL subjects, PHA +, 1:200 PBS dilution of 5 μg/0.2 ml): 49.8 CPM × 10^−3 and 38.3 CPM × 10^−3 and 38.6 CPM × 10^−3
- IL-2 production (IL-2 [7]; NORMAL subjects, PHA −, 5 μg 0.2 ml PBS): 2.1 CPM × 10^−3 and 2.3** CPM × 10^−3
- IL-2 production (IL-2 [7]; NORMAL subjects, PHA −, 1:50 PBS dilution of 5 μg/0.2 ml): 52.2 CPM × 10^−3 and 50.8 CPM × 10^−3 and 43.6 CPM × 10^−3
- IL-2 production (IL-2 [7]; NORMAL subjects, PHA −, 1:100 PBS dilution of 5 μg/0.2 ml): 50.3 CPM × 10^−3 and 46.1 CPM × 10^−3 and 38.4 CPM × 10^−3
- IL-2 production (IL-2 [7]; NORMAL subjects, PHA −, 1:200 PBS dilution of 5 μg/0.2 ml): 47.1 CPM × 10^−3 and 31.3 CPM × 10^−3 and 30.1 CPM × 10^−3
- IL-2 production (IL-2 [7]; SLE patients, PHA +, 5 μg 0.2 ml PBS): 6.3 CPM × 10^−3 and 8.2 CPM × 10^−3 and 4.1 CPM × 10^−3
- IL-2 production (IL-2 [7]; SLE patients, PHA +, 1:50 PBS dilution of 5 μg/0.2 ml): 24.2 CPM × 10^−3 and 28.1 CPM × 10^−3 and 23.8 CPM × 10^−3
- IL-2 production (IL-2 [7]; SLE patients, PHA +, 1:100 PBS dilution of 5 μg/0.2 ml): 19.7 CPM × 10^−3 and 24.0 CPM × 10^−3 and 20.2 CPM × 10^−3
- IL-2 production (IL-2 [7]; SLE patients, PHA +, 1:200 PBS dilution of 5 μg/0.2 ml): 15.4 CPM × 10^−3 and 18.6 CPM × 10^−3 and 16.8 CPM × 10^−3
- IL-2 production (IL-2 [7]; SLE patients, PHA −, 5 μg 0.2 ml PBS): 2.0 CPM × 10^−3 and 2.4 CPM × 10^−3
- IL-2 production (IL-2 [7]; SLE patients, PHA −, 1:100 PBS dilution of 5 μg/0.2 ml): 32.1 CPM × 10^−3 and 35.1 CPM × 10^−3 and 18.1 CPM × 10^−3
- reduction in virus yield (West Nile virus (WNV) [8]): ten
- reduction of virus yield (West Nile virus (WNV) [8]): 40 fold
- state of macrophages after 24 h incubation (mouse macrophages; 1 μg and 0.1 μg (others)): remained unaffected
- state of macrophages after 24 h incubation (mouse macrophages; 5 μg): died
